The values that follow come from patent publication US3980794A, “Method for promoting growth of poultry with 3-(5-nitro-2-imidazolyl)pyrazoles” (Eli Lilly and Company, priority 1975, dated 1976).

In assay [1] the test system is Pasteurella multocida. As to the kind of experiment: Efficacy against Pasteurella multocida infections in mice when administered by injection (Experiment 1). The format is in vivo, Swiss mice. As to conditions: ip; for responders at 2.5 mg/kg: 2.5 mg./kg. i.p.; for responders at 5 mg/kg: 5.0 mg./kg. i.p.; for responders at 7.5 mg/kg: 7.5 mg./kg. i.p. As for the experimental part:
The efficacy of the novel compounds against Pasteurella multocida infections in mice when administered by injection was studied.
Female Swiss mice weighing from 15 to about 20 g. were used. The test compound, 5.0 mg., was weighed out and dissolved in 0.5 ml. of dimethyl sulfoxide, and this solution was added to 9.5 ml. of sodium carboxymethylcellulose suspension. Groups of five mice each were injected intraperitoneally with 0.1 ml. each of the above-prepared test composition. This preparation gave a test rate of 2.5 mg. per kilo of body weight of mouse. The compounds were tested at 2.5, 5.0, or 7.5 mg. per kilo of body weight of mouse, and the test preparations for rates of 5.0 and 7.5 mg./kg. were prepared in a similar manner. Immediately after receiving the test compound, the mice were challenged using log10 dilutions of 10^-^4, 10^-^5, 10^-^6, and 10^-^7 of a 16 to 20-hour tryptose broth culture of Pasteurella multocida at 0.1 ml. per mouse subcutaneously. Similar groups of nontreated control mice were also challenged, the challenge being administered subcutaneously. The groups of mice were observed daily for mortality and the total mortality in treated groups compared with that which occurred in the nonmedicated control groups. Each test compound is identified by the number of the example describing its preparation.
In the chart, column 1 lists the test compound; column 2, the dosage of test compound in mg./kg. of mouse body weight; column 3, the dilution of the challenge organism; and column 4, the ratio of the number of mice surviving the test at each dosage and challenge dilution to the number of mice tested at each dosage and challenge dilution, called the survival ratio.

In assay [2] the test system is Salmonella typhimurium. Description: Control of infections caused by Salmonella typhimurium in chickens, subcutaneous (Experiment 2). The assay is classed as in vivo. As to conditions: Salmonella enterica, sc, 144 h, 6 days, read-out: Survival Ratio (converted); for responders at 7.5 mg/kg: 7.5 mg./kg. subcutaneous; for responders at 15 mg/kg: 15 mg./kg. subcutaneous; for responders at 30 mg/kg: 30 mg./kg. subcutaneous; for responders at 60 mg/kg: 60 mg./kg. subcutaneous; for responders at 3.75 mg/kg: 3.75 mg./kg. subcutaneous. The protocol: The efficacy of the novel compounds in the control of infections caused by Salmonella typhimurium in chickens was evaluated in the following manner.
The test was carried out using day-old chicks weighing approximately 35 g. each. The chicks were divided into groups of 5 chicks per each dosage level. A portion of the chicks received the test compound which was suspended in 0.2 ml. of polyethylene glycol 200 and administered subcutanusly in the neck. […] All the chicks were challenged with a 1:200 dilution of a culture of the organism, 0.1 ml. of the dilution being injected into each chick in the leg intramuscularly. […] The test compounds are identified in the same manner as set forth in Experiment 1.
In the chart, column 1 lists the compounds tested; column 2, the dosage of test compound in mg./kg.; and column 3, the survival ratio.

The test system of assay [3] is Propionibacterium acnes 44. Description: Susceptibility of anaerobic bacteria, agar dilution. The assay is classed as cell-based. As to conditions: Cutibacterium acnes, 24 h; Propionibacterium acnes 44; read-out: 24 Hr. Minimum Inhibitory Concentration.
The subject of assay [4] is Bacteroides fragilis sp. vulgatus 1211. The description is as above. The format is cell-based. As to conditions: 24 h, read-out: 24 Hr. Minimum Inhibitory Concentration.
Assay [5] concerns Fusobacterium symbiosum 1470. Described as above. As to conditions: read-out: 24 Hr. Minimum Inhibitory Concentration. The format is cell-based.
The subject of assay [6] is Pasteurella multocida, bovine strain. As to the kind of experiment: Oral activity against Pasteurella multocida, bovine strain, in mice (Experiment 3). As to conditions: 100 g. per ton of feed; LD50 of control minus LD50 of treated group (log10 dilutions). The format is in vivo, White Swiss mice. The protocol: White Swiss female mice weighing 15-20 g. each were used in the test. Seven groups of ten mice each were treated at a level of 100 g. of test compound per ton of feed. The animals received the medication in the feed for 2 days prior to challenge and for 7 days post challenge. Similar groups of mice on a ration without the antimicrobial agent were used as controls. Both the treated mice and the control groups of mice were challenged with log10 dilutions ranging from 10^-^2 through 10^-^8 of a 16 to 20-hour culture of Pasteurella multocida, bovine strain, at 0.1 ml. per mouse, administered subcutaneously. […] By subtracting the LD50 of each of the treated groups from that of the control group of mice, there was obtained a figure called the protective index.
In the chart, column 1 lists the test compound, identified in the same manner as set forth in Experiment 1; and column 2 lists the protective index.

In assay [7] the test system is Pasteurella multocida. Description: Oral activity against Pasteurella multocida-caused infection in chickens (Experiment 5A). The format is in vivo. As to conditions: 100 g./ton in feed. As for the experimental part: A. Selected examples of the novel compounds were evaluated for their oral activity against Pasteurella multocida-caused infection in chickens. Four to five-week-old chickens were divided into groups of eight, and the compounds administered thereto in the feed. Two replicates were run for each compound. Twenty-four hours after the chickens began receiving the compound in their feed, the treated groups, as well as the nontreated control groups, were challenged intravenously with a broth culture of P. multocida. […] The chicks were observed during seven days following the challenge and the mortality in the treated groups was compared to that of the control group. The heart and liver were removed from each chicken which died during the test and cultured to determine the presence of P. multocida. At the termination of the test, all surviving chickens were sacrificed, the heart and liver removed from each chicken and cultured to determine the presence of P. multocida.

The subject of assay [8] is E. coli. As to the kind of experiment: Oral activity against E. coli infection in chickens (Experiment 6). The assay is classed as in vivo. As for the experimental part:
The evaluation of the effectiveness of selected nitroimidazoles for their oral activity against E. coli infection in chickens was accomplished as follows.
Broiler type, five-week-old chickens were wing-banded and individually weighed. Replicates of 8 chickens, each replicate having the same average chicken weight, were formed. Three replicates were run for each treatment. Treatment was initiated via the feed 24 hours prior to challenge. The E. coli challenge strain was No. 2- 1- 8. The challenge inoculum consisted of 0.5 ml. of 10^-^1 dilution of a 15-18 hour tryptose broth culture administered into the right thoracic air sac of each chicken. Eight to ten days following challenge, all surviving chickens were weighed and examined for lesions. Any chicken that died during the experiment was also examined for lesions such as air sac lesions, pericarditis lesions, and perihepatitis lesions, and a culture made. The pre-treatment average weight per bird was 790 g. The test compounds were the same as before, identified as 1, 6, and 7.

Where [9] appears, read: challenge dilution 10^-^4, read-out: Survival Ratio (converted).
[10] abbreviates: challenge dilution 10^-^5, read-out: Survival Ratio (converted).
The mark [11] stands for this setting: challenge dilution 10^-^6, read-out: Survival Ratio (converted).
Where [12] appears, read: challenge dilution 10^-^7, read-out: Survival Ratio (converted).
Setting [13] is: challenge dilution 10^-^4, read-out: Survival Ratio.
Setting [14] is: challenge dilution 10^-^5, read-out: Survival Ratio.
The mark [15] stands for this setting: challenge dilution 10^-^6, read-out: Survival Ratio.
The mark [16] stands for this setting: Bacteroides fragilis sp. vulgatus 1211.
The mark [17] stands for this setting: 24 h, Fusobacterium symbiosum 1470.

Converted amounts (≈) assume the structure as drawn. Read-outs that look alike come from different tables or passages of the source.

As for `Cn1nc(-c2ncc([N+](=O)[O-])n2C)c(C(N)=O)c1N` [Compound 2, 5-Amino-1-methyl-3-(1-methyl-5-nitro-2-imidazolyl)pyrazole-4-carboxamide], the responders at 2.5 mg/kg in assay [1] (setting [9]) was 50%; in assay [1] (setting [10]) it was 90%; in assay [1] (setting [11]) it was 100%. Moreover, in assay [2], the responders at 7.5 mg/kg was 0%. For the same compound, the responders at 15 mg/kg in assay [2] is 40%. Further, the responders at 30 mg/kg in assay [2] was 44%. Further, the responders at 60 mg/kg in assay [2] is 46.7%. The MIC in assay [3] is 0.5 µg/mL (≈ 1.89 µM); in assay [4] (Bacteroides fragilis), below 0.125 µg/mL; in assay [5] (Fusobacterium, 1470, 24 h), below 0.125 µg/mL.
As to `Cn1nc(-c2ncc([N+](=O)[O-])n2C)c(C#N)c1N` [Compound 1, 5-Amino-1-methyl-3-(1-methyl-5-nitro-2-imidazolyl)pyrazole-4-carbonitrile], the responders at 2.5 mg/kg was 10% in assay [1] (setting [9]), 40% in assay [1] (setting [10]), 80% in assay [1] (setting [11]) and 95% in assay [1] (setting [12]). The responders at 5 mg/kg in assay [1] (setting [9]) is 30%; in assay [1] (setting [10]), 90%; in assay [1] (setting [11]), 90%; in assay [1] (setting [12]), 100%. Also, the responders at 7.5 mg/kg was 70% in assay [1] (setting [13]), 90% in assay [1] (setting [14]), 100% in assay [1] (setting [15]) and 62.9% in assay [2]. In addition, in assay [2], the responders at 3.75 mg/kg is 44%. In assay [2], the responders at 15 mg/kg is 72%. The responders at 30 mg/kg in assay [2] is 54%. Moreover, the responders at 60 mg/kg in assay [2] is 67.1%. In addition, the “Protective Index” value in assay [6] was above 5.6. Further, the results for the “Culture Isolation P. multocida” value in assay [7] (replicate 1), in assay [7] (replicate 2) and in assay [7] (total) were 0/ 8, 1/ 8 and 1/16, respectively. Also, the “Survival Ratio” value in assay [7] (replicate 1) is 8/ 8; in assay [7] (replicate 2), 8/ 8; in assay [7] (total), 16/16; in assay [8] (100 g./ton in feed), 24/24; in assay [8] (200 g./ton in feed), 24/24; in assay [8] (300 g./ton in feed) it was 24/24. The “Avg. Wt./Chicken” value in assay [8] (100 g./ton in feed) was 1058 g; in assay [8] (200 g./ton in feed) it was 1104 g; in assay [8] (300 g./ton in feed), 1014 g. Besides, the “No. chickens with lesions/No. in group” value is 16/24 in assay [8] (100 g./ton in feed), 8/24 in assay [8] (200 g./ton in feed) and 1/24 in assay [8] (300 g./ton in feed). Also, the MIC is above 32 µg/mL in assay [3]; below 0.125 µg/mL in assay [4] (Bacteroides fragilis); below 0.125 µg/mL in assay [5] (Fusobacterium, 1470, 24 h).
In the case of `CC(=O)Nc1c(C(=O)O)c(-c2ncc([N+](=O)[O-])n2C)nn1C` [Compound 12, 5-acetamido-1-methyl-3-(1-methyl-5-nitro-2-imidazolyl)pyrazole-4-carboxylic acid], the figures for the responders at 5 mg/kg in assay [1] (setting [9]), in assay [1] (setting [10]) and in assay [1] (setting [11]) were 0%, 30% and 70%, respectively. Besides, the results for the MIC in assay [3], in assay [4] (setting [16]) and in assay [5] (setting [17]) were above 32 µg/mL, 2 µg/mL (≈ 6.49 µM) and below 0.125 µg/mL, respectively.
For `C=CCOC=Nc1c(C#N)c(-c2ncc([N+](=O)[O-])n2C)nn1C` [Compound 13A, Allyl N-[4-cyano-1-methyl-3-(1-methyl-5-nitro-2-imidazolyl)pyrazol-5-yl]formimidate], the responders at 5 mg/kg in assay [1] (setting [9]) is 60%. In addition, the responders at 5 mg/kg in assay [1] (setting [10]) was 80%. Besides, the responders at 5 mg/kg in assay [1] (setting [11]) is 100%. For the same compound, in assay [2], the responders at 3.75 mg/kg is 40%, the responders at 7.5 mg/kg is 46.7%, the responders at 15 mg/kg is 53.3% and the responders at 30 mg/kg is 33.3%. Also, in assay [2], the responders at 60 mg/kg was 50%. In assay [3], the MIC was above 128 µg/mL. The MIC in assay [4] (setting [16]) is below 0.125 µg/mL. Also, in assay [5] (setting [17]), the MIC was below 0.125 µg/mL.
Consider `CCCCC(CC)COC=Nc1c(C#N)c(-c2ncc([N+](=O)[O-])n2C)nn1C` (centres unmarked) [Compound 13D, 2-Ethylhexyl N-[4-cyano-1-methyl-3-(1-methyl-5-nitro-2-imidazolyl)pyrazol-5-yl]formimidate], for which the responders at 2.5 mg/kg in assay [1] (setting [9]) was 30%; in assay [1] (setting [10]), 70%; in assay [1] (setting [11]), 90%. In addition, the responders at 5 mg/kg in assay [1] (setting [9]) was 90%; in assay [1] (setting [10]) it was 100%; in assay [1] (setting [11]) it was 100%. Further, the responders at 7.5 mg/kg in assay [1] (setting [13]), in assay [1] (setting [14]) and in assay [1] (setting [15]) was 100% each time. In addition, the responders at 15 mg/kg in assay [2] is 10%. The responders at 30 mg/kg in assay [2] is 10%. Moreover, in assay [2], the responders at 60 mg/kg was 33.3%. Also, the MIC in assay [3] came out at 16 µg/mL (≈ 41.3 µM); in assay [4] (setting [16]) it was 1 µg/mL (≈ 2.58 µM); in assay [5] (setting [17]), 1 µg/mL (≈ 2.58 µM).
